Measured values from ChEMBL document CHEMBL1143738, “Inhibition of S. aureus alpha-hemolysin and B. anthracis lethal toxin by beta-cyclodextrin derivatives” (Bioorg Med Chem, 2007).
Active and inactive are the calls of the source. No cut-off for these calls is given here.

Key:
RAW264.7 [1] = experiment: Inhibition of Bacillus anthracis lethal toxin-induced cytotoxicity in mouse RAW264.7 cells; format: functional, cell-based
[2] = Toxicity against mouse RAW264.7 cells; format: cell-based
Erythrocyte [3] = experiment: Inhibition of Staphylococcus aureus alpha-hemolysin-induced cytotoxicity against rabbit RBC; format: functional, cell-based; conditions: Oryctolagus cuniculus
RAW264.7 [4] = experiment: Toxicity against mouse RAW264.7 cells upto 100 uM; format: cell-based
RAW264.7 [5] = experiment: Protection against Bacillus anthracis lethal toxin-induced cell death in mouse RAW264.7cells assessed as cell viability in MTS colorimetric assay; format: functional, cell-based
Erythrocyte [6] = experiment: Protection against Staphylococcus aureus alpha-hemolysin-induced cell death in rabbit RBC assessed as cell viability in MTS colorimetric assay; format: functional, cell-based; conditions: Oryctolagus cuniculus
[7] = target: Protective antigen (Bacillus anthracis) (UniProt P13423); experiment: Inhibition of Bacillus anthracis protective antigen 63 reconstituted in diphytanoylphosphatidylcholine lipid membranes assessed as inhibition of channel conductance at 5 uM
[8] = target: T1, Alpha-hemolysin (Staphylococcus aureus) (UniProt P09616); experiment: Inhibition of Staphylococcus aureus alpha-hemolysin reconstituted in diphytanoylphosphatidylcholine lipid membranes assessed as inhibition of channel conductance at 2 uM
T1 sequence (whole entry): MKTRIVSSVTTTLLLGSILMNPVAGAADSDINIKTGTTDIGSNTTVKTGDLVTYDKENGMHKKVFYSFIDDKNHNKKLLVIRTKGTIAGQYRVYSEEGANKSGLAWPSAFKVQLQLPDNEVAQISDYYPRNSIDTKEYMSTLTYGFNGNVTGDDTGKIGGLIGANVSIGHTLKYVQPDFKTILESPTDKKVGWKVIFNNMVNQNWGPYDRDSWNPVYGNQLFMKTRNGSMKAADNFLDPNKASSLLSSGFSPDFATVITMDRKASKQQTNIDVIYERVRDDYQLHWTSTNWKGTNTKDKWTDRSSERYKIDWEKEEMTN

Sequence of Protective antigen (Bacillus anthracis) (P13423 whole entry): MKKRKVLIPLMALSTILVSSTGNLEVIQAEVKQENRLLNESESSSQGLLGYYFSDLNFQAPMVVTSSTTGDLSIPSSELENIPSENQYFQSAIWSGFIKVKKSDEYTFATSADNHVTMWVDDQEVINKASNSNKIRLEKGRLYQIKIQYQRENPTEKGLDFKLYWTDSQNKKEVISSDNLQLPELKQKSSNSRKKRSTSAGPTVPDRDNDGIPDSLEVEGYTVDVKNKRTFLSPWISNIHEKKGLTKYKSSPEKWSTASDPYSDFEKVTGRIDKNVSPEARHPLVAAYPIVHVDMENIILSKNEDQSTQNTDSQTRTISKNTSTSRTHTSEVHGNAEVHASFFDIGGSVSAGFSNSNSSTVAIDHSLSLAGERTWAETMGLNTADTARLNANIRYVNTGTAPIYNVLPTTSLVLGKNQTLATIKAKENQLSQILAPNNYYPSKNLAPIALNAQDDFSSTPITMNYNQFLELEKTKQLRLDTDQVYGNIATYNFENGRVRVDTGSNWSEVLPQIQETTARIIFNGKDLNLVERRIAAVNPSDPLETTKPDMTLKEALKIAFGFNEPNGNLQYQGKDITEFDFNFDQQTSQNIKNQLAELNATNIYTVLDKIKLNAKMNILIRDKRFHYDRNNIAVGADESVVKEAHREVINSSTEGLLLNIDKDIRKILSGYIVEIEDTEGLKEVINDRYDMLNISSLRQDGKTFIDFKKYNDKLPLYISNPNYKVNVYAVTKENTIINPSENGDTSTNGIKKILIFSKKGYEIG

Row | Structure (SMILES) | IC50 (RAW264.7 [1]) | IC50 [2] | IC50 (Erythrocyte [3]) | Activity (RAW264.7 [4]) | Activity (RAW264.7 [5]) | Activity (Erythrocyte [6]) | Activity [7] | Activity [8]
1 | Cl.Cl.Cl.Cl.Cl.Cl.Cl.N[C@@H](CS)CC(=O)NC[C@H]1O[C@@H]2O[C@H]3[C@H](O)[C@@H](O)[C@@H](O[C@H]4[C@H](O)[C@@H](O)[C@@H](O[C@H]5[C@H](O)[C@@H](O)[C@@H](O[C@H]6[C@H](O)[C@@H](O)[C@@H](O[C@H]7[C@H](O)[C@@H](O)[C@@H](O[C@H]8[C@H](O)[C@@H](O)[C@@H](O[C@H]1[C@H](O)[C@H]2O)O[C@@H]8CNC(O)[C@@H](N)CS)O[C@@H]7CNC(=O)[C@@H](N)CS)O[C@@H]6CNC(=O)[C@@H](N)CS)O[C@@H]5CNC(=O)[C@@H](N)CS)O[C@@H]4CNC(=O)[C@@H](N)CS)O[C@@H]3CNC(=O)[C@@H](N)CS (stereo partly drawn) | > 25 µM | 0.6 µM | > 25 µM | Non-toxic | – | – | – | –
2 | Cl.Cl.Cl.Cl.Cl.Cl.Cl.Cl.Cl.Cl.Cl.Cl.Cl.Cl.NCCC[C@H](N)CC(=O)NC[C@H]1O[C@@H]2O[C@H]3[C@H](O)[C@@H](O)[C@@H](O[C@H]4[C@H](O)[C@@H](O)[C@@H](O[C@H]5[C@H](O)[C@@H](O)[C@@H](O[C@H]6[C@H](O)[C@@H](O)[C@@H](O[C@H]7[C@H](O)[C@@H](O)[C@@H](O[C@H]8[C@H](O)[C@@H](O)[C@@H](O[C@H]1[C@H](O)[C@H]2O)O[C@@H]8CNC(O)[C@@H](N)CCCN)O[C@@H]7CNC(=O)[C@@H](N)CCCN)O[C@@H]6CNC(=O)[C@@H](N)CCCN)O[C@@H]5CNC(=O)[C@@H](N)CCCN)O[C@@H]4CNC(=O)[C@@H](N)CCCN)O[C@@H]3CNC(=O)[C@@H](N)CCCN (stereo partly drawn) | > 25 µM | 0.6 µM | > 25 µM | Non-toxic | – | – | – | –
3 | CC(C)(C)OC(=O)N[C@@H](CCCN)CC(=O)NC[C@H]1O[C@@H]2O[C@H]3[C@H](O)[C@@H](O)[C@@H](O[C@H]4[C@H](O)[C@@H](O)[C@@H](O[C@H]5[C@H](O)[C@@H](O)[C@@H](O[C@H]6[C@H](O)[C@@H](O)[C@@H](O[C@H]7[C@H](O)[C@@H](O)[C@@H](O[C@H]8[C@H](O)[C@@H](O)[C@@H](O[C@H]1[C@H](O)[C@H]2O)O[C@@H]8CNC(O)[C@H](CCCN)NC(=O)OC(C)(C)C)O[C@@H]7CNC(=O)[C@H](CCCN)NC(=O)OC(C)(C)C)O[C@@H]6CNC(=O)[C@H](CCCN)NC(=O)OC(C)(C)C)O[C@@H]5CNC(=O)[C@H](CCCN)NC(=O)OC(C)(C)C)O[C@@H]4CNC(=O)[C@H](CCCN)NC(=O)OC(C)(C)C)O[C@@H]3CNC(=O)[C@H](CCCN)NC(=O)OC(C)(C)C.Cl.Cl.Cl.Cl.Cl.Cl (stereo partly drawn) | 3.5 µM | 0.6 µM | 5.6 µM | Non-toxic | Active | Active | Active | Active
4 | Cl.Cl.Cl.Cl.Cl.Cl.Cl.N[C@@H](CO)CC(=O)NC[C@H]1O[C@@H]2O[C@H]3[C@H](O)[C@@H](O)[C@@H](O[C@H]4[C@H](O)[C@@H](O)[C@@H](O[C@H]5[C@H](O)[C@@H](O)[C@@H](O[C@H]6[C@H](O)[C@@H](O)[C@@H](O[C@H]7[C@H](O)[C@@H](O)[C@@H](O[C@H]8[C@H](O)[C@@H](O)[C@@H](O[C@H]1[C@H](O)[C@H]2O)O[C@@H]8CNC(O)[C@@H](N)CO)O[C@@H]7CNC(=O)[C@@H](N)CO)O[C@@H]6CNC(=O)[C@@H](N)CO)O[C@@H]5CNC(=O)[C@@H](N)CO)O[C@@H]4CNC(=O)[C@@H](N)CO)O[C@@H]3CNC(=O)[C@@H](N)CO (stereo partly drawn) | > 25 µM | 0.6 µM | > 25 µM | Non-toxic | – | – | – | –
5 | N[C@@H](COCc1ccccc1)CC(=O)NC[C@H]1O[C@@H]2O[C@H]3[C@H](O)[C@@H](O)[C@@H](O[C@H]4[C@H](O)[C@@H](O)[C@@H](O[C@H]5[C@H](O)[C@@H](O)[C@@H](O[C@H]6[C@H](O)[C@@H](O)[C@@H](O[C@H]7[C@H](O)[C@@H](O)[C@@H](O[C@H]8[C@H](O)[C@@H](O)[C@@H](O[C@H]1[C@H](O)[C@H]2O)O[C@@H]8CNC(O)[C@@H](N)COCc1ccccc1)O[C@@H]7CNC(=O)[C@@H](N)COCc1ccccc1)O[C@@H]6CNC(=O)[C@@H](N)COCc1ccccc1)O[C@@H]5CNC(=O)[C@@H](N)COCc1ccccc1)O[C@@H]4CNC(=O)[C@@H](N)COCc1ccccc1)O[C@@H]3CNC(=O)[C@@H](N)COCc1ccccc1.O=C(O)C(F)(F)F.O=C(O)C(F)(F)F.O=C(O)C(F)(F)F.O=C(O)C(F)(F)F.O=C(O)C(F)(F)F.O=C(O)C(F)(F)F.O=C(O)C(F)(F)F (stereo partly drawn) | > 25 µM | 0.6 µM | 6.1 µM | Non-toxic | – | – | – | –
6 | N[C@@H](CSCc1ccccc1)CC(=O)NC[C@H]1O[C@@H]2O[C@H]3[C@H](O)[C@@H](O)[C@@H](O[C@H]4[C@H](O)[C@@H](O)[C@@H](O[C@H]5[C@H](O)[C@@H](O)[C@@H](O[C@H]6[C@H](O)[C@@H](O)[C@@H](O[C@H]7[C@H](O)[C@@H](O)[C@@H](O[C@H]8[C@H](O)[C@@H](O)[C@@H](O[C@H]1[C@H](O)[C@H]2O)O[C@@H]8CNC(O)[C@@H](N)CSCc1ccccc1)O[C@@H]7CNC(=O)[C@@H](N)CSCc1ccccc1)O[C@@H]6CNC(=O)[C@@H](N)CSCc1ccccc1)O[C@@H]5CNC(=O)[C@@H](N)CSCc1ccccc1)O[C@@H]4CNC(=O)[C@@H](N)CSCc1ccccc1)O[C@@H]3CNC(=O)[C@@H](N)CSCc1ccccc1.O=C(O)C(F)(F)F.O=C(O)C(F)(F)F.O=C(O)C(F)(F)F.O=C(O)C(F)(F)F.O=C(O)C(F)(F)F.O=C(O)C(F)(F)F.O=C(O)C(F)(F)F (stereo partly drawn) | > 25 µM | 0.6 µM | 10.6 µM | Non-toxic | – | – | – | –
